{
  "source": "patent US10500222B2",
  "about": "“Compositions and methods relating to treatment of infection” (Wayne State University, priority 2015, dated 2019)",
  "format_in_all_cases": "in vivo, C57BL/6 (B6) mice",
  "key": {"[1]": {"test_system": "mRNA levels in P. aeruginosa KEI 1025 infected cornea", "assay": "Real time RT-PCR of cornea, KEI 1025 infection", "procedure": "(§1) The left eyes of B6 mice (n=5/group/time) were injected with 5 μl of 2 μg/μl glycyrrhizin (GLY) (Sigma-Aldrich, St. Louis, Mo.) or PBS (control) subconjunctivally, one day before infection. Similar treatment was done using carbenoxolone (CBX) (Sigma-Aldrich, St. Louis, Mo.). All mice were injected intraperitoneally (IP) at 1 and 3 days p.i. with 100 μl of GLY (2 μg/μl) or CBX (1 μg/μl). PBS served as control for all these experiments. In a separate similar experiment mice were treated one day before infection with GLY subconjunctivally and injected intraperitoneally (i.p.) with GLY plus recombinant (r) HMGB1 (1 μg/100 μl) or GLY plus PBS. IP injections were similarly given at 1 and 3 days p.i. In an additional experiment, KEI 1025 infected B6 mice were treated with 5 μl of 2 μg/μl GLY subconjunctivally at 6 hours p.i. and injected intraperitoneally at 1 and 3 days p.i. with 100 μl of GLY (2 μg/μl).\nKEI 1025 or ATCC strain 19660 infected GLY or PBS treated mice were sacrificed at 5 days p.i. and the normal, contralateral (uninfected) and infected cornea was harvested. For each cornea, total RNA was isolated (RNA STAT-60™; Tel-Test, Friendswood, Tex.) according to the manufacturer's instructions. Upon spectrophotometric quantification at 260 nm, 1 μg of each RNA sample was reverse transcribed using Moloney-murine leukemia virus (M-MLV) reverse transcriptase (Invitrogen, Carlsbad, Calif.) to produce a cDNA template for the PCR reaction. cDNA products were diluted 1:25 with diethylpyrocarbonate (DEPC)-treated water. A 2 μl aliquot of diluted cDNA was used for the real-time RT-PCR reaction with Real-Time SYBR® Green/Fluorescein PCR Master Mix (Bio-Rad) and primer concentrations of 10 μM (total 10 μl reaction volume). After a pre-programmed hot start cycle (3 min at 95° C.), the parameters used for PCR amplification were: 15 sec at 95° C. and 60 sec at 60° C. with the cycles repeated 45 times. Optimal conditions for PCR amplification of cDNA were established using routine methods. mRNA levels of HMGB1, RAGE, IL-1β, TLR2, TLR4, CXCL2, TNF-α, NLR family pyrin domain containing 3 (NLRP3), NLR family CARD domain containing 4 (NLRC4), IL-12, TGF-β, IL-10, single Ig IL-1-related receptor (SIGIRR) and interleukin 1 receptor-like 1 (ST2) were tested by real-time RT-PCR (CFX Connect™ Real-Time PCR Detection System; Bio-Rad, Richmond, Calif.). The fold differences in gene expression were calculated after normalization to β-actin and expressed as the relative mRNA concentration+SEM."}, "[2]": {"test_system": "P. aeruginosa KEI 1025 infected cornea", "assay": "Ocular response to bacterial infection (clinical score, slit lamp), KEI 1025 keratitis", "details": "subconj. 1 day before infection + IP 1 and 3 days p.i., vs PBS", "text": "P. aeruginosa strains, KEI 1025, a non-cytotoxic clinical isolate strain expressing exoT and exoS, and not expressing exoU, described in Estrellas P S, Jr., et al., Curr Eye Res. 2000; 20:157-165 (obtained from Kresge Eye Institute, Detroit, Mich.), and a cytotoxic strain, 19660, expressing exoU, described in Finck-Barbancon V, et al., Mol Microbiol. 1997; 25:547-557; and Fleiszig S M, et al., Infect Immun. 1997; 65:579-586 (obtained from American Type Culture Collection, ATCC, Manassas, Va.), were grown in peptone tryptic soy broth (PTSB) medium in a rotary shaker water bath at 37° C. and 150 rpm for 18 h to an optical density (measured at 540 nm) between 1.3-1.8. Bacterial cultures were pelleted by centrifugation at 5,500 g for 10 min. Pellets were washed once with sterile saline, re-centrifuged, re-suspended and diluted in sterile saline. Anesthetized (using anhydrous ethyl ether) mice were placed beneath a stereoscopic microscope at 40× magnification. The left cornea was scarified with three 1-mm incisions using a sterile 25^5/8 gauge needle. The wounded corneal surface was topically treated with 5 μl containing 1×10^7 CFU/μl (KEI 1025) or 1×10^6 CFU/μl (ATCC strain 19660) of the P. aeruginosa suspension.\nAn established corneal disease grading scale, described in detail in Hazlett L D, et al., Invest Ophthalmol Vis Sci. 1987; 28:1978-1985, was used to assign a clinical score value to each infected eye at 1, 3 and 5 days post infection (p.i.). Clinical scores were designated as: 0=clear or slight opacity, partially or fully covering the pupil; +1=slight opacity, fully covering the anterior segment; +2=dense opacity, partially or fully covering the pupil; +3=dense opacity, covering the entire anterior segment; and +4=corneal perforation or phthisis. Clinical scores were used to statistically compare disease severity and were accompanied by photographs using a slit lamp (5 days p.i.) to confirm and illustrate the response.\nas §1"}, "[3]": {"test_system": "P. aeruginosa KEI 1025", "assay": "Quantification of viable bacteria (plate count), KEI 1025 infection", "details": "pretreatment subconj. + IP, vs PBS", "procedure": "as §1\nMice were sacrificed at 3 and 5 days p.i. and KEI 1025 or ATCC strain 19660 infected corneas from GLY, CBX or PBS (or GLY+/−rHMGB1) treated B6 mice were harvested (n=5/group/time). Each cornea was homogenized in 1 ml of sterile saline (0.85% NaCl, pH 7.4) containing 0.25% BSA. A 100 μl of the corneal homogenate was serially diluted (1:10) in sterile saline containing 0.25% BSA. Selected dilutions were plated in triplicate on selective culture medium (Difco™ Pseudomonas Isolation Agar, BD Biosciences, Inc., Franklin Lakes, N.J.). Plates were incubated overnight at 37° C. and viable bacteria manually counted. Results are reported as log10 CFU/cornea±SEM."}, "[4]": {"details": "KEI 1025, pretreatment subconj. + IP, infected cornea 5 days p.i., vs PBS"}},
  "note": "“Also recorded” adds a separate entry of the source.",
  "data": [
    {"smiles": "CC1(C)[C@@H](OC(=O)CCC(=O)O)CC[C@]2(C)[C@H]3C(=O)C=C4[C@@H]5C[C@@](C)(C(=O)O)CC[C@]5(C)CC[C@@]4(C)[C@]3(C)CC[C@@H]12", "note": "[CBX, carbenoxolone]", "values": [
      {"measurement": "CXCL2 mRNA levels", "setting": "[1]; [4]", "value": "reduced"},
      {"measurement": "HMGB1 mRNA levels", "setting": "[1]; [4]", "value": "no difference"},
      {"measurement": "IL-1β mRNA levels", "setting": "[1]; [4]", "value": "significantly reduced"},
      {"measurement": "IL-12 mRNA levels", "setting": "[1]; [4]", "value": "only GLY reduced"},
      {"measurement": "NLRC4 mRNA levels", "setting": "[1]; [4]", "value": "only GLY reduced"},
      {"measurement": "NLRP3 mRNA levels", "setting": "[1]; [4]", "value": "reduced"},
      {"measurement": "SIGIRR mRNA levels", "setting": "[1]; [4]", "value": "increased modestly"},
      {"measurement": "TGF-β mRNA levels", "setting": "[1]; [4]", "value": "reduced"},
      {"measurement": "TLR2 mRNA levels", "setting": "[1]; [4]", "value": "did not differ from PBS controls"},
      {"measurement": "TLR4 mRNA", "setting": "[1]; [4]", "value": "reduced"},
      {"measurement": "TNF-α mRNA levels", "setting": "[1]; [4]", "value": "reduced by both GLY and CBX, but only GLY (p<0.01) was significant"},
      {"measurement": "mRNA levels of the other molecules tested", "setting": "[1]; normal (uninfected) corneas, among PBS, CBX, GLY groups", "value": "no differences"},
      {"measurement": "clinical scores", "setting": "[2]; 3 days p.i.", "value": "statistically significant reduction in disease scores; also recorded: only reduced at 3 days"},
      {"measurement": "clinical scores", "setting": "[2]; 5 days p.i.", "value": "not at 5 (p=0.2) days p.i."},
      {"measurement": "opacity, slit lamp photographs", "setting": "[2]; 5 days p.i.", "value": "reduced opacity"},
      {"measurement": "bacterial load in the corneas (plate count)", "setting": "[3]; 3 days p.i.", "value": "not at 3 days p.i."},
      {"measurement": "bacterial load in the corneas (plate count)", "setting": "[3]; 5 days p.i.", "value": "significantly reduced"}
    ]}
  ]
}
